Assay results as given in article PMC9474474, “Determination of pharmacokinetics and tissue distribution of a novel lutetium-labeled PSMA-targeted ligand, ^177Lu-DOTA-PSMA-GUL, in rats by using LC–MS/MS” (Scientific Reports, 2022).

Columns and labels:
Assay type in all cases: in vivo, Male Sprague–Dawley rats
[1] = Pharmacokinetics after i.v. bolus injection in rats (non-compartmental analysis, dose proportionality)
Experimental: (§1) Freshly prepared ^175Lu-DOTA-PSMA-GUL solution (2.1 mg/mL) was administered by i.v. bolus injection via the penile vein (n = 5–7) at three doses of 1, 2, and 5 mg/kg. Approximately 0.3 mL of the jugular venous blood samples were collected at predetermined times after i.v. injection. Plasma samples were harvested by centrifugation of the blood samples at 3220 × g for 10 min. Urine and feces samples were collected at 4, 8, 12, and 24 h after i.v. injection. All samples were stored at -70 °C until analysis.
(§2) The plasma concentration–time data were analyzed by non-compartmental method using Phoenix® WinNonlin® (Pharsight, NC, USA). The fraction of ^175Lu-DOTA-PSMA-GUL excreted into urine (Furine) and feces (Ffeces) were calculated by the ratio of the total amount of drug excreted in the urine and feces to the fraction of the dose, respectively. The tissue-to-plasma partition coefficients (KP) were calculated as the tissue-to-plasma concentration ratios.
Dose proportionality was tested for Cmax, AUCall, and AUCinf based on power model. Assuming the natural logarithm of the pharmacokinetic parameter is linearly related to the natural logarithm of dose as in the following equation: ln(PK parameter) = β0 + β1 × ln(dose), the slope coefficient (β1) and its two-sided 95% confidence intervals (CI) were estimated.

[2] = Tissue distribution at steady state after i.v. bolus loading dose plus i.v. infusion in rats; settings: for plasma concentration at steady state: from 1.5 h of i.v. infusion
Experimental: Tissue distribution of ^175Lu-DOTA-PSMA-GUL was examined under two different steady-state conditions after i.v. infusion of ^175Lu-DOTA-PSMA-GUL. Two target steady-state plasma concentrations (Css) were set as 3000 and 6000 ng/mL. Rats were surgically cannulated with polyethylene tubing (0.58 mm i.d. and 0.96 mm o.d.; Natume, Tokyo, Japan) in the left jugular vein for blood sampling and femoral vein for i.v. injection and infusion. After one day of recovery, ^175Lu-DOTA-PSMA-GUL was administered by i.v. injection as a loading dose (LD) and i.v. infusion for 3 h to achieve the target Css. The i.v. bolus LD and i.v. infusion rates (K0) were calculated by LD = Css,target·Vss and K0 = Css,target·CL, respectively. […] The calculated LD was 0.60 mg/kg and 1.20 mg/kg for the target Css of 3,000 ng/mL and 6,000 ng/mL, respectively. The calculated K0 was 1.82 mg/h/kg and 3.65 mg/h/kg for the target Css of 3,000 ng/mL and 6,000 ng/mL, respectively.
Blood samples were collected at 1.5, 2, 2.5, and 3 h during i.v. infusion, and centrifuged at 3,200 × g for 10 min. At the end of the infusion, rats were sacrificed, and brain, lung, heart, spleen, small intestine, stomach, kidney, liver, prostate, fat, muscle, and testis were excised and immediately homogenized in normal saline. All samples were stored at -70 °C until analysis.
as §2

[3] = Excretion into urine and feces for 24 h after i.v. injection in rats
Experimental: as §1, §2

[4] = i.v. injection, average over doses
[5] = steady state, average of both infusion levels

O=C([O-])CN1CCN(CC(=O)[O-])CCN(CC(=O)[O-])C(Cc2ccc(NC(=S)NCCCC[C@H](NC(=O)N[C@@H](CCC(=O)O)C(=O)O)C(=O)O)cc2)CN(CC(=O)[O-])CC1.[Lu+3] (stereo partly shown) [^175Lu-DOTA-PSMA-GUL, Lutetium labeled-1,4,7,10-tetraazacyclododecane-1,4,7,10-tetraacetic acid (DOTA)-PSMA-GUL]
detection in the plasma ([1]; after 4 h of i.v. injection): not detected
clearance (CL) ([1]; from the i.v. injection study): 10.126 mL/min/kg
AUCall ([1]; i.v. injection 1 mg/kg): 1841.19 ± 266.36 ng·h/mL
AUCinf ([1]; i.v. injection 1 mg/kg): 1857.48 ± 270.08 ng·h/mL
C0 ([1]; i.v. injection 1 mg/kg): 9267.42 ± 2673.59 ng/mL
CL ([1]; i.v. injection 1 mg/kg): 9.13 ± 1.30 mL/min/kg
MRT ([1]; i.v. injection 1 mg/kg): 20.4 ± 1.2 min
VSS ([1]; i.v. injection 1 mg/kg): 0.19 ± 0.03 L/kg
Vz ([1]; i.v. injection 1 mg/kg): 0.25 ± 0.03 L/kg
t1/2 ([1]; i.v. injection 1 mg/kg): 19.2 ± 1.2 min
AUCall ([1]; i.v. injection 2 mg/kg): 3029.00 ± 350.80 ng·h/mL
AUCinf ([1]; i.v. injection 2 mg/kg): 3047.45 ± 346.00 ng·h/mL
C0 ([1]; i.v. injection 2 mg/kg): 14,960.22 ± 3104.40 ng/mL
CL ([1]; i.v. injection 2 mg/kg): 11.04 ± 1.15 mL/min/kg
MRT ([1]; i.v. injection 2 mg/kg): 19.2 ± 1.8 min
VSS ([1]; i.v. injection 2 mg/kg): 0.21 ± 0.04 L/kg
Vz ([1]; i.v. injection 2 mg/kg): 0.29 ± 0.05 L/kg
t1/2 ([1]; i.v. injection 2 mg/kg): 18 ± 1.8 min
AUCall ([1]; i.v. injection 5 mg/kg): 8038.10 ± 1055.28 ng·h/mL
AUCinf ([1]; i.v. injection 5 mg/kg): 8076.44 ± 1063.99 ng·h/mL
C0 ([1]; i.v. injection 5 mg/kg): 46,720.92 ± 13,829.91 ng/mL
CL ([1]; i.v. injection 5 mg/kg): 10.46 ± 1.30 mL/min/kg
MRT ([1]; i.v. injection 5 mg/kg): 19.2 ± 1.2 min
VSS ([1]; i.v. injection 5 mg/kg): 0.20 ± 0.03 L/kg
Vz ([1]; i.v. injection 5 mg/kg): 0.30 ± 0.09 L/kg
t1/2 ([1]; i.v. injection 5 mg/kg): 19.8 ± 5.4 min
average CL [1, 4]: 10.13 mL/min/kg
average volume of distribution (Vss) [1, 4]: 0.20 L/kg
Concentration, brain ([2]; CSS,target = 3000 ng/mL): BLOQ
Concentration, fat ([2]; CSS,target = 3000 ng/mL): 320.68 ± 55.09 ng/g
Concentration, heart ([2]; CSS,target = 3000 ng/mL): 645.67 ± 204.29 ng/g
Concentration, kidney ([2]; CSS,target = 3000 ng/mL): 7253.09 ± 665.80 ng/g
Concentration, liver ([2]; CSS,target = 3000 ng/mL): 949.81 ± 342.61 ng/g
Concentration, lung ([2]; CSS,target = 3000 ng/mL): 962.76 ± 287.82 ng/g
Concentration, muscle ([2]; CSS,target = 3000 ng/mL): 342.27 ± 188.70 ng/g
Concentration, prostate ([2]; CSS,target = 3000 ng/mL): 2433.69 ± 2292.84 ng/g
Concentration, small intestine ([2]; CSS,target = 3000 ng/mL): 741.67 ± 507.55 ng/g
Concentration, spleen ([2]; CSS,target = 3000 ng/mL): 541.13 ± 52.33 ng/g
Concentration, stomach ([2]; CSS,target = 3000 ng/mL): 276.46 ± 95.71 ng/g
Concentration, testis ([2]; CSS,target = 3000 ng/mL): 504.17 ± 122.39 ng/g
Tissue to plasma coefficient (KP), fat ([2]; CSS,target = 3000 ng/mL): 0.11 ± 0.02
Tissue to plasma coefficient (KP), heart ([2]; CSS,target = 3000 ng/mL): 0.23 ± 0.07
Tissue to plasma coefficient (KP), kidney ([2]; CSS,target = 3000 ng/mL): 2.56 ± 0.29
Tissue to plasma coefficient (KP), liver ([2]; CSS,target = 3000 ng/mL): 0.33 ± 0.11
Tissue to plasma coefficient (KP), lung ([2]; CSS,target = 3000 ng/mL): 0.34 ± 0.10
Tissue to plasma coefficient (KP), muscle ([2]; CSS,target = 3000 ng/mL): 0.12 ± 0.07
Tissue to plasma coefficient (KP), prostate ([2]; CSS,target = 3000 ng/mL): 0.86 ± 0.82
Tissue to plasma coefficient (KP), small intestine ([2]; CSS,target = 3000 ng/mL): 0.26 ± 0.18
Tissue to plasma coefficient (KP), spleen ([2]; CSS,target = 3000 ng/mL): 0.19 ± 0.02
Tissue to plasma coefficient (KP), stomach ([2]; CSS,target = 3000 ng/mL): 0.10 ± 0.04
Tissue to plasma coefficient (KP), testis ([2]; CSS,target = 3000 ng/mL): 0.18 ± 0.04
Concentration, plasma ([2]; CSS,target = 3000 ng/mL, LD 0.60 mg/kg, infusion 1.82 mg/h/kg): 2845.62 ± 111.43 ng/mL
Concentration, brain ([2]; CSS,target = 6000 ng/mL): BLOQ
Concentration, fat ([2]; CSS,target = 6000 ng/mL): 406.59 ± 77.17 ng/g
Concentration, heart ([2]; CSS,target = 6000 ng/mL): 737.57 ± 453.10 ng/g
Concentration, kidney ([2]; CSS,target = 6000 ng/mL): 14,455.60 ± 1272.17 ng/g
Concentration, liver ([2]; CSS,target = 6000 ng/mL): 1881.97 ± 267.48 ng/g
Concentration, lung ([2]; CSS,target = 6000 ng/mL): 1480.52 ± 464.64 ng/g
Concentration, muscle ([2]; CSS,target = 6000 ng/mL): 621.78 ± 419.81 ng/g
Concentration, prostate ([2]; CSS,target = 6000 ng/mL): 8550.82 ± 7322.84 ng/g
Concentration, small intestine ([2]; CSS,target = 6000 ng/mL): 1636.21 ± 1273.92 ng/g
Concentration, spleen ([2]; CSS,target = 6000 ng/mL): 932.03 ± 368.50 ng/g
Concentration, stomach ([2]; CSS,target = 6000 ng/mL): 612.39 ± 161.18 ng/g
Concentration, testis ([2]; CSS,target = 6000 ng/mL): 877.83 ± 252.52 ng/g
Tissue to plasma coefficient (KP), fat ([2]; CSS,target = 6000 ng/mL): 0.07 ± 0.02
Tissue to plasma coefficient (KP), heart ([2]; CSS,target = 6000 ng/mL): 0.13 ± 0.08
Tissue to plasma coefficient (KP), kidney ([2]; CSS,target = 6000 ng/mL): 2.61 ± 0.47
Tissue to plasma coefficient (KP), liver ([2]; CSS,target = 6000 ng/mL): 0.34 ± 0.05
Tissue to plasma coefficient (KP), lung ([2]; CSS,target = 6000 ng/mL): 0.26 ± 0.09
Tissue to plasma coefficient (KP), muscle ([2]; CSS,target = 6000 ng/mL): 0.11 ± 0.07
Tissue to plasma coefficient (KP), prostate ([2]; CSS,target = 6000 ng/mL): 1.54 ± 1.33
Tissue to plasma coefficient (KP), small intestine ([2]; CSS,target = 6000 ng/mL): 0.29 ± 0.23
Tissue to plasma coefficient (KP), spleen ([2]; CSS,target = 6000 ng/mL): 0.17 ± 0.08
Tissue to plasma coefficient (KP), stomach ([2]; CSS,target = 6000 ng/mL): 0.11 ± 0.04
Tissue to plasma coefficient (KP), testis ([2]; CSS,target = 6000 ng/mL): 0.15 ± 0.04
Concentration, plasma ([2]; CSS,target = 6000 ng/mL, LD 1.20 mg/kg, infusion 3.65 mg/h/kg): 5713.2 ± 523.23 ng/mL
plasma concentration at steady state ([2]; LD 0.60 mg/kg, infusion rate 1.82 mg/h/kg): approximately 3,000 ng/mL
plasma concentration at steady state ([2]; LD 1.20 mg/kg, infusion rate 3.65 mg/h/kg): ~6,000 ng/mL
detection in the brain ([2]; steady state after i.v. infusion): not detected
average KP, kidneys [2, 5]: 2.58
average KP, prostate [2, 5]: 1.20
average KP, other tissues ([2]; steady state, tissues other than kidneys and prostate): less than 0.34
Ffeces (fraction excreted into feces) ([3]; i.v. injection 1 mg/kg): 5.46 ± 4.11%
Furine (fraction excreted into urine) ([3]; i.v. injection 1 mg/kg): 58.71 ± 21.26%
Ffeces (fraction excreted into feces) ([3]; i.v. injection 2 mg/kg): 1.08 ± 0.76%
Furine (fraction excreted into urine) ([3]; i.v. injection 2 mg/kg): 54.59 ± 25.98%
Ffeces (fraction excreted into feces) ([3]; i.v. injection 5 mg/kg): 6.41 ± 3.68%
Furine (fraction excreted into urine) ([3]; i.v. injection 5 mg/kg): 59.89 ± 22.82%
